One test concerns Cat Flea. As to the kind of experiment: Flea Contact Assay (FCA). The following applies: Cat Flea. The procedure:
Flea Contact Assay (FCA)/Cat Flea: Test material is formulated in acetone at the desired exposure concentration and doubling dilutions performed to obtain a total of 10 testing levels. Approximately 0.05 ml of formulated material is dispensed into the bottom of a test tube containing a small amount of dog hair. Acetone is allowed to evaporate under a fume hood overnight. Approximately 10 mixed-sex adult cat flea are anesthetized using carbon dioxide and dispensed into each tube. Tubes are sealed using a ventilated plastic cap and incubated at 27° C. and 75-80% relative humidity. […] Nonlinear regression is used to model dose-mortality relationship and obtain relative potency (LD50) data compared to contemporaneous controls (acetone-only or fipronil).

The test system of the next test is House Fly. Nature of the test: Adult House Fly Assay (AhsF). The arrangement: species or system Musca domestica. Particulars: 24 h, read-out: Potency (24 h EC50 μM). The procedure: Adult Stable or House Fly Assay (ASF, AhsF). This assay is conducted essentially as described in White, W. H., S. M. Bauer, X. Zhao et al., Comparison of in vitro and in vivo ectoparasiticide activity of an experimental benzimidazole-carbamate with permethrin and amitraz, J. Med. Entomol. 42, 207-211 (2005); and White, W. H., C. M. McCoy, J. A. Meyer et al., Knockdown and mortality comparisons among spinosad-, imidacloprid-, and methomyl-containing baits against susceptible Musca domestica (Diptera: Muscidae) under laboratory conditions, J. Econ. Entomol. 100, 155-163 (2007).
Test material is formulated in DMSO at 10 mM. Doubling dilutions in like solvent are made to yield 10 testing levels. Materials are diluted in either bovine serum (stable flies) or 5% glucose solution (house flies) to obtain desired exposure concentrations from 200-0.39 μM. Approximately 3 ml of diluted test material is placed into a test tube (n=3 per test level) and a dental wick is used to absorb fluid. One dental wick is placed into a small weigh boat inside of a 100 mm Petri dish. Approximately 10 mixed-sex adult flies are anesthetized using carbon dioxide and counted into each dish. Dishes are incubated at 27° C. and 50-70% relative humidity. Flies recover from anesthesia and feed on compound-soaked dental wicks. After 24 h, live/dead flies are enumerated. Nonlinear regression is used to model dose-mortality relationship and obtain relative potency (LD50) data compared to contemporaneous controls (solvent-only or permethrin).

Another test has as its system Lone Star Tick. As to the kind of experiment: Larval Packet Test (LPT). The following applies: Lone Star Tick larvae, 24 h. The procedure: Larval Packet Test (LPT)/Ticks: Test material is formulated in a 2:1 ratio of trichloroethylene: olive oil. Tissue biopsy bags are saturated with 1 ml of formulated material (n=3 per test level), and bags are allowed to dry under a fume hood for at least 2 hours. Approximately 50-100 larval-stage ticks are placed into each bag, and the bag is sealed using a plastic dialysis clip and incubated for 24 h at 27° C. and 95% relative humidity. Bags are then opened, and live/dead ticks are enumerated. Nonlinear regression is used to model dose-mortality relationship and obtain relative potency (LD50) data compared to contemporaneous controls (solvent-only or fipronil).

The test system of test [1] is Horn Fly (Haematobia irritans). As to the kind of experiment: Cattle Ectoparasiticide Test, pour-on or spray against horn flies. The class given is in vivo. The following applies: cattle, Initial. The text has this:
Cattle Ectoparasiticide Test (CET)/Horn Fly (Haematobia irritans) and/or Adult Tick (Amblyomma americanum): Cattle are housed in environmentally controlled rooms, 1 or 2 animals per room that have screened doors and ventilation system to prevent fly escape. Following treatment application, a defined number of horn flies are released into each room (typically at or above economic threshold of 200 flies per animal). After defined periods of time, the numbers of live horn flies remaining on animals are enumerated. If a combination horn fly and tick experiment is conducted, adult lone star ticks are placed into surgical stockinette enclosures that are glued onto the backs of cattle. Cattle are restrained in a modified head gate within environmentally controlled rooms. Horn flies may be enumerated, followed by determination of the numbers of dead ticks inside of containment units. Typically there are 2 containment units per animal and at least 2 animals per treatment group.
B) Therapeutic and residual efficacy testing of spinetoram and Elector against horn flies when applied topically to cattle as a pour-on or topical spray. Spinetoram (120 g/L), Elector (25 g/L spinosad) as described previously were used. Test material was applied to animals as either a whole-body topical spray or neat pour-on. Spinetoram was diluted in water to 25 g/L prior to application as a pour-on. Both materials were diluted in water to 0.04% (400 ppm) for application as a whole-body spray in a total volume of 1 L per animal. There were a total of six animals per treatment group (n=6) plus six negative control animals. Beef and dairy cattle were used. Following treatments, horn flies were released into rooms harboring cattle. Live flies were enumerated 24 h following challenges.

For the next test, the system named is Boophilus annulatus. Nature of the test: Whole-body spray treatment of Boophilus annulatus infestations on cattle. The class given is in vivo. The arrangement: residual efficacy, mean percentage control of the IF, Week 3 / residual efficacy, mean percentage control of the IF, Week 4: concentration or dose not given beside the values; residual efficacy, mean percentage control of the IF, Week 2: tested at 0.025% (250 ppm). On the procedure: C) Efficacy Testing and comparison of topically applied spinetoram with spinosad for the treatment of Boophilus annulatus infestations on cattle. Technical spinetoram and technical spinosad both formulated as 25 g/L suspension concentrate formulations similar to commercial Elector. Stability assays (HPLC and LPT bioassays) were conducted to confirm potency over extended periods of time (5 weeks) at cool and shelf-temperatures. Cattle were pre-infested 21 d prior to treatment with larval-stage B. annulatus ticks resulting the presence of very high numbers of all three life-stages of this tick at the time of treatment. Test materials were diluted to 0.025% (250 ppm) and applied to cattle as whole-body topical sprays in a volume of 10 L per animal. There were a total of six animals per treatment group (n=6). Animals were housed in covered stalls under ambient conditions of temperature and humidity. Engorged, detached adult female ticks were retrieved from animals in each stall on a daily basis. Egg masses were weighed and eggs were set for hatching to assess viability. Efficacy was measured in terms of total numbers of female ticks per animal and index of fecundity (IF).
Means were tested by General Linear Model (GLM), 1-way ANOVA. Differences (P<0.05) among means were separated using Tukey's all pairwise comparison. Means within the same column followed by different letters were significant at the P<0.05 level.
Means were tested by General Linear Model (GLM), 2-way ANOVA with parasitic life stage and treatment group as main effects. NS denotes not significant.

[2] abbreviates: cattle, 0.025% AI whole-body spray, mean ± SD.

Where two headings read alike, the source gives them in different places.

Take `O=[N+]([O-])NC1=NCCN1Cc1ccc(Cl)nc1` [Imidacloprid, imidacloprid]: in the test on Cat Flea, the “Potency (EC50 ng/cm^2) 24 h” value is reported as 11.59 ng/cm^2 and the “Potency (EC50 ng/cm^2) 48 h” value was 7.737 ng/cm^2.

Regarding `N#Cc1nn(-c2c(Cl)cc(C(F)(F)F)cc2Cl)c(N)c1[S+]([O-])C(F)(F)F` (stereo not drawn) [Fipronil, fipronil], in the test on House Fly (Musca domestica), the EC50 amounted to 0.97 µM. Moreover, in the test on Cat Flea, the “Potency (EC50 ng/cm^2) 24 h” value is on record as 43.56 ng/cm^2 and the “Potency (EC50 ng/cm^2) 48 h” value amounted to 22.18 ng/cm^2.

Regarding spinosad, the EC50 in the test on House Fly (House Fly) came to 12 µM. Besides, in the test with Cat Flea, the “Potency (EC50 ng/cm^2) 24 h” value came to 3.084 ng/cm^2 and the “Potency (EC50 ng/cm^2) 48 h” value was 1.500 ng/cm^2. For the same compound, the “Potency (EC50)” value with Lone Star Tick came out at 189.6 ppm. In test [1] (pour-on 2 mg/kg), the “GM percent horn fly reduction after 24 hrs, Pour-on” value is on record as 99.9%. Moreover, the “GM percent horn fly reduction after 24 hrs, Spray” value in test [1] (whole-body spray 0.04% AI) was 100%. Also, the “initial/knockdown activity against B. annulatus” value in the test on Boophilus annulatus (cattle, 0.025% AI) is reported as “poor”. Moreover, in the test on Boophilus annulatus (setting [2]), the “Number ♀♀ Ticks per Calf” value was determined as 2423 ± 311 a and the “Total Index of Fecundity (IF)” value was determined as 289 ± 40.1 a. For the same compound, the “Percentage Control of the IF” value in the test with Boophilus annulatus (cattle, 0.025% AI whole-body spray, therapeutic efficacy) worked out at 27.6 ± 10.0 a %. Also, the “Percentage control, Adult” value in the test with Boophilus annulatus (parasitic life stage adult, 0.025% AI) turned out to be 18.5 ± 13.0%. For the same compound, the “Percentage control, Larval” value in the test with Boophilus annulatus (parasitic life stage larva, 0.025% AI) is on record as 33.1 ± 16.6%. Besides, in the test on Boophilus annulatus (parasitic life stage nymph, 0.025% AI), the “Percentage control, Nymph” value was 32.9 ± 10.8%. Further, the “residual efficacy, mean percentage control of the IF, Week 1” value in the test on Boophilus annulatus (ticks infested as larvae Week 1 after treatment) was determined as 97.6 ± 2.1%. In the test with Boophilus annulatus (ticks infested as larvae Week 2 after treatment), the “residual efficacy, mean percentage control of the IF, Week 2” value is reported as 98.5 ± 1.2%. In the test on Boophilus annulatus (ticks infested as larvae Week 3 after treatment), the “residual efficacy, mean percentage control of the IF, Week 3” value is listed as 89.4 ± 6.2%. The “residual efficacy, mean percentage control of the IF, Week 4” value in the test on Boophilus annulatus (ticks infested as larvae Week 4 after treatment) was determined as 89.7 ± 4.8%.

As for `CC1(C)C(C=C(Cl)Cl)C1C(=O)OCc1cccc(Oc2ccccc2)c1` (stereo not drawn) [Permethrin, permethrin], in the test with Cat Flea, the “Potency (EC50 ng/cm^2) 24 h” value worked out at 63.30 ng/cm^2 and the “Potency (EC50 ng/cm^2) 48 h” value came out at 0.1580 ng/cm^2.

Source of the values: patent publication US20150045313A1, “Ectoparasiticidal Methods and Formulations” (Eli Lilly and Company, priority 2009, published 2015).
